The record followed here is PubChem BioAssay (NCI).

Assay in all cases: inhibition of tumour cell growth, NCI panel, 48 h
The subject of experiment [1] is U251 CNS.
Experiment [2] has as its system KM12 colon.
Experiment [3] deals with OVCAR-3 ovarian.
Experiment [4] has as its system SR leukemia.
The test system of experiment [5] is SNB-19 CNS.
For experiment [6], the system named is SF-295 CNS.
Experiment [7] relates to RXF 393 renal.
Experiment [8] has as its system PC-3 prostate.

Each structure is given as a SMILES string. Several values for one entry are separate records, joined by “and”; a condition that tells them apart may be missing. Identical values can stand only once.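 48-hour exposure; five concentrations; linearly interpolated endpoints. At the GI50, growth is halved. TGI denotes the concentration required for complete inhibition of growth.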

Turning to `C[C@]12CCc3sc(Nc4ccc(OC(F)(F)F)cc4)nc3C1=CC[C@@H]1[C@@H]2CC[C@]2(C)C(=O)CC[C@@H]12`, the GI50 in experiment [1] was 1.09 µM; in experiment [2] it was 3.56 µM; in experiment [3], 1.94 µM; in experiment [4] it was 2.74 µM; in experiment [5], 2.12 µM; in experiment [6] it was 0.7 µM. For the same molecule, in experiment [7], the GI50 is 0.5 µM. Also, the TGI was 3.26 µM in experiment [1]; 15 µM in experiment [2]; 4.14 µM in experiment [3]; over 100 µM in experiment [4]; 9.93 µM in experiment [5]; 2.44 µM in experiment [6]. In addition, the TGI in experiment [7] stood at 2.21 µM.

As to `Cc1cn(C2CC(OC(=O)c3ccc(Cl)cc3)C(COC(=O)c3ccc(Cl)cc3)O2)c(=O)[nH]c1=O` (stereo not given), the TGI in experiment [1], in experiment [2], in experiment [8], in experiment [3], in experiment [4] and in experiment [5] was over 100 µM in each case. This molecule showed a TGI in experiment [6] of over 100 µM.

Regarding `CCCCCCCCn1ccc2cc(NC(=O)Cn3cc(CN4CCCCCC4)nn3)ccc21`, the GI50 in experiment [1] is 1.83 µM; in experiment [2], 1.73 µM; in experiment [3], 1.73 µM; in experiment [5] it was 1.8 µM; in experiment [6], 1.74 µM; in experiment [7] it was 1.66 µM. For the same molecule, the TGI was found to be 3.29 µM in experiment [1]; 3.27 µM in experiment [2]; 3.24 µM in experiment [3]; 3.46 µM in experiment [5]; 3.33 µM in experiment [6]; 3.24 µM in experiment [7].

As to `CCCCCCCCCCCCCCCCCCOC[C@H](COP(=O)(O)O[C@H]1[C@H](O)[C@@H](O)[C@H](O)C[C@H]1O)OC`, the GI50 is 33 µM and 5.89 µM in experiment [1]; 25.9 µM and 4.67 µM in experiment [2]; 7.44 µM and 2.94 µM in experiment [8]; > 100 µM and 16.9 µM in experiment [3]; 98.4 µM and 15.3 µM in experiment [6]; 35.4 µM and 5.76 µM in experiment [7]. Further, the TGI in experiment [1] is > 100 µM and 19.2 µM; in experiment [2], > 100 µM and 28.1 µM; in experiment [8] it was 43.3 µM and 14.1 µM; in experiment [3], > 100 µM and 34.9 µM; in experiment [4] it was 45.9 µM and 40.8 µM; in experiment [6] it was > 100 µM and 30.8 µM. Further, the TGI in experiment [7] was > 100 µM and 21.1 µM.

With `C=C1c2c(C)nn(-c3ccc(C#CCOC4OC(CO)C(O)C(O)C4O)cc3)c2N(C)C23C[C@H]1C1(C)c4c(C)nn(-c5ccc(C#CCOC6OC(CO)C(O)C(O)C6O)cc5)c4N(C)C(C)(C[C@H]12)C3` (stereo not given in full), the GI50 in experiment [1] is 1.19 µM; in experiment [2] it was 1.44 µM; in experiment [8], 0.702 µM; in experiment [3], 1.52 µM; in experiment [4] it was 3.28 µM; in experiment [5] it was 1.66 µM. For the same molecule, the GI50 in experiment [7] is 1.62 µM. For the same molecule, the TGI in experiment [1] is 2.59 µM; in experiment [2] it was 2.9 µM; in experiment [8], 2.56 µM; in experiment [3], 3.8 µM; in experiment [4], over 100 µM; in experiment [5] it was 3.95 µM. The same molecule came in with a TGI in experiment [7] of 3.52 µM.

Turning to `COc1ccc2c(c1)C(=O)CCc1cc(OC)c(OC)c(OC)c1-2`, the GI50 in experiment [1], in experiment [2], in experiment [8], in experiment [5] and in experiment [6] was under 0.01 µM throughout. For the same molecule, the TGI in experiment [1] was 0.18 µM; in experiment [8], over 100 µM; in experiment [5], over 100 µM; in experiment [6], over 100 µM.

For the molecule `Nc1ncc(-c2cnn(C3CCNCC3)c2)cc1-c1nc2cc(Cl)ccc2o1`, the GI50 in experiment [1] is 1.38 µM; in experiment [2], 0.392 µM; in experiment [8] it was 1.29 µM; in experiment [3] it was 1.73 µM; in experiment [5], 1.56 µM; in experiment [6] it was 1.96 µM. Further, the GI50 in experiment [7] was 1.55 µM. Also, the TGI in experiment [1] was 2.73 µM; in experiment [2] it was 1.71 µM; in experiment [8], 2.77 µM; in experiment [3], 3.26 µM; in experiment [5], 2.97 µM; in experiment [6], 3.68 µM. The TGI in experiment [7] came out at 2.92 µM.

Turning to `C=C(C)C1CC2(C)C(C)CC(O)CC2C(OC(=O)C=C(C)C)C1O` (stereo not given), the TGI in experiment [1] is over 100 µM; in experiment [2] it was over 100 µM; in experiment [8] it was over 100 µM; in experiment [4] it was 51.9 µM; in experiment [5] it was over 100 µM; in experiment [6], 84.3 µM. Moreover, the TGI in experiment [7] was over 100 µM.

Consider `CN(C)CCOc1ccc([N+](=O)[O-])c2cccnc12`, for which the TGI in experiment [1], in experiment [2], in experiment [8], in experiment [3], in experiment [4] and in experiment [5] was over 100 µM each time. The TGI in experiment [6] was over 100 µM.

With `Cc1cc(Cl)ccc1OCC(=O)Nc1nc2c(Cl)cccc2s1`, the GI50 is 8.32 µM in experiment [1]; 43.5 µM in experiment [2]; 8.89 µM in experiment [8]; 28.1 µM in experiment [3]; 31.2 µM in experiment [5]; 20.8 µM in experiment [6]. The TGI in experiment [1] was 25.2 µM; in experiment [2], over 100 µM; in experiment [8], over 100 µM; in experiment [3], 93.8 µM; in experiment [5] it was 72 µM; in experiment [6], over 100 µM.

As to `O=c1[nH]c2ccccc2cc1-c1nc2ccc(Cl)cc2[nH]1`, the GI50 in experiment [1] is 3.87 µM; in experiment [2], 0.385 µM; in experiment [8] it was 3.71 µM; in experiment [3], 2.37 µM; in experiment [5], 29.8 µM; in experiment [6], 9.63 µM. Besides, the TGI in experiment [1] was over 100 µM; in experiment [2] it was over 100 µM; in experiment [8], 29.1 µM; in experiment [3], 7.25 µM; in experiment [5], over 100 µM; in experiment [6] it was over 100 µM.

As for `COc1cc(Nc2ncccc2C(=O)Nc2nc3ccc(F)cc3s2)cc(OC)c1OC`, the GI50 in experiment [1] is 3.01 µM; in experiment [2], 3.79 µM; in experiment [8], 2.73 µM; in experiment [3], 2.77 µM; in experiment [4], 2.97 µM; in experiment [5], 3.49 µM. Moreover, in experiment [6], the GI50 was 2.55 µM. In addition, the TGI was over 100 µM in experiment [1]; over 100 µM in experiment [2]; over 100 µM in experiment [8]; 33 µM in experiment [3]; over 100 µM in experiment [4]; over 100 µM in experiment [5]. Also, the TGI in experiment [6] is over 100 µM.
